# Results published in ChEMBL document CHEMBL5346923, “Novel pyridinium cationic pleuromutilin analogues overcoming bacterial multidrug resistance” (Eur J Med Chem, 2023).
# Columns and labels:
# Type in all cases: functional
# Staphylococcus aureus [1] = assay: Antibacterial activity against methicillin-resistant Staphylococcus aureus ATCC 43300 assessed as inhibition of bacterial growth measured after 24 hrs by MH broth based assay
# Bacillus subtilis = assay: Antibacterial activity against Bacillus subtilis ATCC 6633 assessed as inhibition of bacterial growth measured after 24 hrs by MH broth based assay
# Escherichia coli [2] = assay: Antibacterial activity against Escherichia coli MG1655 assessed as inhibition of bacterial growth measured after 24 hrs by MH broth based assay
# Proteus = assay: Antibacterial activity against Proteus CMCC (B) 49027 assessed as inhibition of bacterial growth measured after 24 hrs by MH broth based assay
# [3] = tested on: Staphylococcus epidermidis; assay: Antibacterial activity against methicillin-resistant Staphylococcus epidermidis ATCC 51625 assessed as inhibition of bacterial growth measured after 24 hrs by MH broth based assay
# Streptococcus pneumoniae = assay: Antibacterial activity against Streptococcus pneumoniae ATCC 49619 assessed as inhibition of bacterial growth measured after 24 hrs by MH broth based assay
# Enterococcus = assay: Antibacterial activity against vancomycin-resistant Enterococcus ATCC 700221 assessed as inhibition of bacterial growth measured after 24 hrs by MH broth based assay
# Escherichia coli [4] = assay: Antibacterial activity against Escherichia coli ATCC 25922 assessed as inhibition of bacterial growth measured after 24 hrs by MH broth based assay
# Klebsiella pneumoniae = assay: Antibacterial activity against Klebsiella pneumonia CMCC (B) 46117 assessed as inhibition of bacterial growth measured after 24 hrs by MH broth based assay
# Staphylococcus aureus [5] = assay: Antibacterial activity against Staphylococcus aureus ATCC 29213 assessed as inhibition of bacterial growth measured after 24 hrs by MH broth based assay
# Escherichia coli [6] = assay: Antibacterial activity against Escherichia coli MG1655 harbouring acrB gene assessed as inhibition of bacterial growth measured after 24 hrs by MH broth based assay
SMILES,MIC (Staphylococcus aureus [1]) [µg/mL],MIC (Bacillus subtilis) [µg/mL],MIC (Escherichia coli [2]) [µg/mL],MIC (Proteus) [µg/mL],MIC [3] [µg/mL],MIC (Streptococcus pneumoniae) [µg/mL],MIC (Enterococcus) [µg/mL],MIC (Escherichia coli [4]) [µg/mL],MIC (Klebsiella pneumoniae) [µg/mL],MIC (Staphylococcus aureus [5]) [µg/mL],MIC (Escherichia coli [6]) [µg/mL]
C=C[C@]1(C)C[C@@H](OC(=O)CSc2cc[n+](CCO)cc2)[C@]2(C)[C@H](C)CC[C@]3(CCC(=O)[C@H]32)[C@@H](C)[C@@H]1O.[I-],1,64,64,64,1,0.5,32,64,32,1,0.5
C=C[C@]1(C)C[C@@H](OC(=O)CSc2cc[n+](CCC)cc2)[C@]2(C)[C@H](C)CC[C@]3(CCC(=O)[C@H]32)[C@@H](C)[C@@H]1O.[I-],0.25,64,64,64,0.125,0.063,16,64,32,0.25,0.5
C=C[C@]1(C)C[C@@H](OC(=O)CSc2cc[n+](CCCCCCCCCCC(=O)O)cc2)[C@]2(C)[C@H](C)CC[C@]3(CCC(=O)[C@H]32)[C@@H](C)[C@@H]1O.[I-],0.5,64,64,64,2,0.5,64,64,64,0.5,32
